Data on five compounds can be found in publication PMC8230956, “Inhibition of the Human Hsc70 System by Small Ligands as a Potential Anticancer Approach” (Cancers, 2021).

Each structure is given as a SMILES string. Where two headings read alike, the source gives them in different places.

The target of one data set is T1, Hsc70 + DnaJB1 + Apg2 (Homo sapiens, UniProt P11142+P34932).
T1 construct: His6-SUMO (N, cleaved yes); made in house; host or cells: E. coli BL21 Rosetta
The data set is described as follows: Reactivation of G6PDH aggregates by the ternary chaperone mixture. It is filed as biochemical. As to the method: (§1) Subsequently, aggregates were stabilized for 30 min at 30 °C. The properties of these aggregates have been previously reported, and typically show a hydrodynamic radius of approximately 500–600 nm. Aggregates (0.4 µM final concentration) were added to samples containing 2 µM Hsc70 and 0.5 µM DnaJB1 in the absence or presence of 0.4 µM Apg2. […] A preincubation of the samples with compounds for 30 min at 30 °C was done prior to starting the reaction. The reaction was started with the addition of 2 mM ATP and the ATP-regeneration system (3 mM PEP and 20 ng/mL PK). Final sample volume was 100 µL. Reactivation was monitored at 30 °C for 180 min. At different times of the reaction, 5 µL of sample were added to 250 µL buffer containing 50 mM Tris-HCl pH 7.5, 50 mM KCl, 20 mM MgCl2, 10 mM DTT, 1 mM NADP^+, 2.5 mM G6P (Sigma-Aldrich). NADPH formation was measured recording the absorbance increase at 340 nm in a Synergy HTX plate reader (BioTek, Winooski, VT, USA) in transparent 96-well plates with flat bottom (Sarstedt, Newton, NC, USA) for 5 min. Reactivation percentages were calculated considering the slope of NADPH formation for native G6PDH as 100% activity. […] IC50 values were estimated with a sigmoidal dose-response ligand-binding equation.

The next data set has as its target T2, Hsc70 + DnaJB1 (Homo sapiens, UniProt P11142).
T2 construct: His6-SUMO (N, cleaved yes); made in house; host or cells: E. coli BL21 Rosetta
The data set is described as follows: Reactivation of G6PDH aggregates by the binary chaperone mixture. Type of data set: biochemical. Conditions: 2 µM Hsc70, 0.5 µM DnaJB1, 0.4 µM G6PDH aggregates; means ± SD of three experiments. As to the method: as §1

Another data set deals with A2058 cells. The data set is described as follows: Cell viability assay (XTT or Presto Blue), A2058. Conditions: for Effect on cell viability (toxicity), A2058: increasing concentrations, different incubation times. Type of data set: cell-based, human. An excerpt:
(§2) Cells grew in Dulbecco’s Modified Eagle Medium (DMEM) high glucose (Sigma-Aldrich) supplemented with heat-inactivated 10% fetal bovine serum (FBS) (HyClone™, GE Healthcare, IL, USA). […] Primary human melanocytes (human epidermal melanocytes, neonatal, light pigmented, HEMn-LP) were purchased from Invitrogen (Waltham, MA, USA, C-002-5C).
(§3) Two colorimetric assays were used to study the cytotoxic effects of the selected compounds: the XTT Cell Proliferation Kit II (Roche) and Presto Blue™ Cell Viability Reagent (Invitrogen). Exponentially growing cell lines seeded at 20,000 cells/well in 96-well flat bottom plates (Sarstedt) were incubated overnight in 150 µL of the corresponding growth medium. The following day, the medium was replaced by fresh medium (150 µL) containing 1% FBS (except for melanocytes) and 0.9% DMSO in the presence or absence of different concentrations of compounds. A2058 and MeWo cells were treated with increasing compound concentrations for cell viability assays. […] Cell viability in plates treated with XTT was determined by reading the absorbance at 490 nm in a Synergy HTX plate reader (BioTek). […] In both cases, the absorbance of the medium was subtracted from cell-containing wells. Control values (without compounds but with 0.9% DMSO) were taken as 100% viability.
(Tetrazolium dyes change colour on reduction, which living cells bring about.)

Data set [1] deals with non-transformed cell lines. More on the design: method as in PMID 19027770, PMID 17981006, PMID 18171263. The settings on record: cited from earlier work.
The subject of another data set is MeWo cells. The data set is described as follows: Cell viability assay (XTT or Presto Blue), MeWo. It is filed as cell-based, human. Conditions: increasing concentrations, different incubation times.
Text: as §2, §3

The test system of data set [2] is melanocytes (HEMn-LP non-malignant skin cells). The data set is described as follows: Cell viability assay (XTT or Presto Blue), primary melanocytes. It is filed as cell-based, human. Conditions: 20 µM, up to 12 h.
Text: as §2, §3

A further data set has as its system fibroblasts (MRC-5). The data set is described as follows: Cell viability assay (XTT or Presto Blue), fibroblasts. Conditions: 20 µM, up to 12 h. It is filed as cell-based, human.
Text: as §2, §3

Setting [3] is: 2 µM Hsc70, 0.5 µM DnaJB1, 0.4 µM Apg2, 0.4 µM G6PDH aggregates, means ± SD of three experiments, read-out: IC50 G6PDH Reactivation Hsc70 + DnaJB1 + Apg2.

T2 sequence (P11142 whole entry): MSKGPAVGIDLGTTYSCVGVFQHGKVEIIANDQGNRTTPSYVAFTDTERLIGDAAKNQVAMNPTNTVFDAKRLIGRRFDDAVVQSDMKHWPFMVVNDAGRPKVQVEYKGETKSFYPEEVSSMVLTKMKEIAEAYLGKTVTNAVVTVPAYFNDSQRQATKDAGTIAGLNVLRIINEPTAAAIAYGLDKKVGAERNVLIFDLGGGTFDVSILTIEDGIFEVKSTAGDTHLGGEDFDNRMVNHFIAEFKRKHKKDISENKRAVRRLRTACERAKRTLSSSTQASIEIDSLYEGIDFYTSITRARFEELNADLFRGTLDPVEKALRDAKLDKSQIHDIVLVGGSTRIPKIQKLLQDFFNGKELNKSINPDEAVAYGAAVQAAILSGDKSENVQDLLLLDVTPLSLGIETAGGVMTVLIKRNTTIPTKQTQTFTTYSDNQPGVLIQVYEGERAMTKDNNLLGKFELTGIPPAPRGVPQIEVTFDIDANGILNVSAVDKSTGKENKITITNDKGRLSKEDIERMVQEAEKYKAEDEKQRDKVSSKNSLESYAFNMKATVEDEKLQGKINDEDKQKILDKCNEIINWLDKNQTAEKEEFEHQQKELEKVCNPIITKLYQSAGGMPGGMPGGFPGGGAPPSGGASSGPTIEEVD
T1 sequence (P11142 whole entry): as above
T1 sequence (P34932 whole entry): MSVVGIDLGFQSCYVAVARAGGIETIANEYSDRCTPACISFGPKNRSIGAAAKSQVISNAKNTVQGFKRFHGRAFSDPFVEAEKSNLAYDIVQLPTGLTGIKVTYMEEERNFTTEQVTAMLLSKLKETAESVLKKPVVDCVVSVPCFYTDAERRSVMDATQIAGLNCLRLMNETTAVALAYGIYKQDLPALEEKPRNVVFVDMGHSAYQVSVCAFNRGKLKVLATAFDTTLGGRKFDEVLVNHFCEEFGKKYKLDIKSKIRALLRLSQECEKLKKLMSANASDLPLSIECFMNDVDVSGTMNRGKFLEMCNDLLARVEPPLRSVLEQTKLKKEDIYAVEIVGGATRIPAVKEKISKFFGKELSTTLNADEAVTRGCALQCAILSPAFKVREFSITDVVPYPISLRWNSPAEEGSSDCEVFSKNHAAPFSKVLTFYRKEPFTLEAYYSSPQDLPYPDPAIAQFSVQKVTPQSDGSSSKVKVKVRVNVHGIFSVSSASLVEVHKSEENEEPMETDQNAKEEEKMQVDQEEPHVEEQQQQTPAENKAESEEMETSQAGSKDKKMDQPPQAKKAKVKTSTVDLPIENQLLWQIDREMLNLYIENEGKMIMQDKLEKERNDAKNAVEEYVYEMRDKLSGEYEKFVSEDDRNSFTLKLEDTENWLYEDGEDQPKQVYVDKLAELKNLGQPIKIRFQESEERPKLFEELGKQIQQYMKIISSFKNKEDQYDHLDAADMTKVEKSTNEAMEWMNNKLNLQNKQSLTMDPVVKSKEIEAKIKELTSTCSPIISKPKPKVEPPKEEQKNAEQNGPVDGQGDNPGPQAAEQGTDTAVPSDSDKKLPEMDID

One may read the IC50 as the concentration at which inhibition is half-maximal. Turning to `[H]/N=C(\N/C(=N/[H])NCCCCCCNC(=N)NC(=N)Nc1ccc(Cl)cc1)Nc1ccc(Cl)cc1` [Compound 1, (1E)-2-[6-[[amino-[(E)-[amino-(4-chloroanilino)methylidene]amino]methylidene]amino]hexyl]-1-[amino-(4-chloroanilino)methylidene]guanidine], the figures for the IC50 at Hsc70 + DnaJB1 + Apg2 (setting [3]) and on Hsc70 + DnaJB1 were 14.5 ± 1.8 µM and 11.9 ± 0.2 µM, respectively. In the data set on A2058 cells, the “Effect on cell viability (toxicity), A2058” value (from here on “Effect … A2058”) was “Cell viability decreased”. In data set [1], the “Toxicity in non-transformed cell lines” value is given as “toxicity in several non-transformed cell lines”. In the data set with MeWo cells, the “Effect on cell viability (toxicity), MeWo” value (from here on “Effect … MeWo”) is reported as “Cell viability decreased”.
As to `CCc1oc2ccccc2c1C(=O)c1cc(Br)c(O)c(Br)c1` [Compound 3, (3,5-dibromo-4-hydroxyphenyl)-(2-ethyl-1-benzofuran-3-yl)methanone], the IC50 worked out at 17.6 ± 0.1 µM at Hsc70 + DnaJB1 + Apg2 and 10.1 ± 0.4 µM at Hsc70 + DnaJB1. In addition, in the data set on A2058 cells, the “Effect … A2058” value is “no toxicity was observed”. In the data set on MeWo cells, the “Effect … MeWo” value is reported as “no toxicity was observed”.
With `CC=C(C)C(=O)OC1C(OC(C)=O)C2(CO)C(O)CC3(C)C(=CCC4C5(C)CCC(OC6OC(C(=O)O)C(OC7OC(CO)C(O)C(O)C7O)C(O)C6OC6OC(CO)C(O)C(O)C6O)C(C)(CO)C5CCC43C)C2CC1(C)C` (centres unmarked) [Compound 4], the IC50 on Hsc70 + DnaJB1 + Apg2 (setting [3]) is 47 ± 5.6 µM; at Hsc70 + DnaJB1 it was 37.3 ± 1.8 µM.
Turning to `Cl.O[C@@H](c1cc(C(F)(F)F)nc2c(C(F)(F)F)cccc12)[C@H]1CCCCN1` [Compound 5, (S)-[2,8-bis(trifluoromethyl)quinolin-4-yl]-[(2R)-piperidin-2-yl]methanol hydrochloride], the concentration for half-maximal inhibition (IC50) came out at 97.3 ± 21.1 µM on Hsc70 + DnaJB1 + Apg2 (setting [3]) and 107 ± 7.5 µM at Hsc70 + DnaJB1. For the same compound, the “Effect … A2058” value with A2058 cells is “Cell viability decreased”. For the same compound, in the data set on A2058 cells (melanoma cell lines (A2058 and MeWo) versus IC50 of the isolated chaperone system), the “Fold lower toxic concentration in melanoma cell lines than IC50 for the isolated chaperone system” value is “around 7 fold”. Further, the Toxicity in melanocytes entry in data set [2] is given as “no toxicity was observed”. In addition, the “Effect … MeWo” value in the data set with MeWo cells was “Cell viability decreased”. Further, in the data set on fibroblasts (MRC-5), the Toxicity in fibroblasts entry is “no toxicity was observed”.
On to `O=C(O)Cc1cc(I)c(Oc2ccc(O)c(I)c2)c(I)c1` [Compound 6, 2-[4-(4-hydroxy-3-iodophenoxy)-3,5-diiodophenyl]acetic acid], for which the “Effect … A2058” value with A2058 cells is “no toxicity was observed”. In addition, in the data set on MeWo cells, the “Effect … MeWo” value is “no toxicity was observed”.
